From the supplement of paper PMC4862054

Assays:
Details in all cases: incubation time: 72 h
BT-474 [1] = assay: normalised response (% of control), CellTox Green; higher = less cell death (100 = DMSO, 0 = benzethonium chloride kill control)
Outline: (§1)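 Breast cancer cell lines, seeded at 20 µl suspension per well, were incubated for 72 h in 384-well plates containing compound at 5 concentrations. These concentrations rose in 10-fold steps over a 10,000-fold range set for each compound. CellTox Green fluorescence (485/520 nm) was read, then CellTiter-Glo luminescence after 10 min at room temperature, and each plate was normalised to 0.1 % DMSO (100) and a positive kill control (0). Values are normalised signals, each at one concentration.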

BT-549 [2] = assay: as above
Outline: as §1

CAL-120 [3] = assay: as above
Outline: as §1

CAL-148 [4] = assay: as above
Outline: as §1

CAL-51 [5] = assay: as above
Outline: as §1

CAL-85-1 [6] = assay: as above
Outline: as §1

DU-4475 [7] = assay: as above
Outline: as §1

HCC1143 [8] = assay: as above
Outline: as §1

HCC1599 [9] = assay: as above
Outline: as §1

HCC1937 [10] = assay: as above
Outline: as §1

HDQ-P1 [11] = assay: as above
Outline: as §1

Hs578T [12] = assay: as above
Outline: as §1

MCF-10A [13] = assay: as above
Outline: as §1

MDA-MB-231 [14] = assay: as above
Outline: as §1

MDA-MB-436 [15] = assay: as above
Outline: as §1

MDA-MB-453 [16] = assay: as above
Outline: as §1

MDA-MB-468 [17] = assay: as above
Outline: as §1

MFM-223 [18] = assay: as above
Outline: as §1

BT-474 [19] = assay: normalised response (% of control), CellTiter-Glo; higher = more viable cells (100 = DMSO, 0 = benzethonium chloride kill control)
Experimental: (§2)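 DSRT, 72 h incubation, CellTox Green / CellTiter-Glo readout. Signal is normalised to DMSO and benzethonium chloride controls. Value is the normalised response at the highest dose.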

BT-549 [20] = assay: as above
Experimental: as §2

CAL-120 [21] = assay: as above
Experimental: as §2

CAL-148 [22] = assay: as above
Experimental: as §2

CAL-51 [23] = assay: as above
Experimental: as §2

CAL-85-1 [24] = assay: as above
Experimental: as §2

DU-4475 [25] = assay: as above
Experimental: as §2

HCC1143 [26] = assay: as above
Experimental: as §2

HCC1599 [27] = assay: as above
Experimental: as §2

HCC1937 [28] = assay: as above
Experimental: as §2

HDQ-P1 [29] = assay: as above
Experimental: as §2

Hs578T [30] = assay: as above
Experimental: as §2

MCF-10A [31] = assay: as above
Experimental: as §2

MDA-MB-231 [32] = assay: as above
Experimental: as §2

MDA-MB-436 [33] = assay: as above
Experimental: as §2

MDA-MB-453 [34] = assay: as above
Experimental: as §2

MDA-MB-468 [35] = assay: as above
Experimental: as §2

MFM-223 [36] = assay: as above
Experimental: as §2

SK-BR-3 = assay: as above
Experimental: as §2

Row | Compound | normalised response (BT-474 [1]) | normalised response (BT-549 [2]) | normalised response (CAL-120 [3]) | normalised response (CAL-148 [4]) | normalised response (CAL-51 [5]) | normalised response (CAL-85-1 [6]) | normalised response (DU-4475 [7]) | normalised response (HCC1143 [8]) | normalised response (HCC1599 [9]) | normalised response (HCC1937 [10]) | normalised response (HDQ-P1 [11]) | normalised response (Hs578T [12]) | normalised response (MCF-10A [13]) | normalised response (MDA-MB-231 [14]) | normalised response (MDA-MB-436 [15]) | normalised response (MDA-MB-453 [16]) | normalised response (MDA-MB-468 [17]) | normalised response (MFM-223 [18]) | normalised response (BT-474 [19]) | normalised response (BT-549 [20]) | normalised response (CAL-120 [21]) | normalised response (CAL-148 [22]) | normalised response (CAL-51 [23]) | normalised response (CAL-85-1 [24]) | normalised response (DU-4475 [25]) | normalised response (HCC1143 [26]) | normalised response (HCC1599 [27]) | normalised response (HCC1937 [28]) | normalised response (HDQ-P1 [29]) | normalised response (Hs578T [30]) | normalised response (MCF-10A [31]) | normalised response (MDA-MB-231 [32]) | normalised response (MDA-MB-436 [33]) | normalised response (MDA-MB-453 [34]) | normalised response (MDA-MB-468 [35]) | normalised response (MFM-223 [36]) | normalised response (SK-BR-3)
1 | CNC(=O)c1ccc(N2C(=S)N(c3ccc(C#N)c(C(F)(F)F)c3)C(=O)C2(C)C)cc1F [Enzalutamide] (10000 nM) | 101% | 70.1% | 104% | 103% | 108% | 85% | 98.2% | 117% | 96.7% | 55.2% | 112% | 112% | 111% | 107% | 96.1% | 95.5% | 87.5% | 106% | 94.3% | 100% | 97.5% | 96.1% | 80.3% | 91.7% | 92.6% | 96.6% | 102% | 92.7% | 86.5% | 105% | 93.4% | 90.2% | 97.2% | 88.5% | 93.7% | 89.3% | 99%
2 | CCOC(=O)CCNc1cc(N2CCc3ccccc3CC2)nc(-c2ccccn2)n1 [GSK-J4] (100000 nM) | -13.6% | -16.3% | -21.8% | 3.2% | -10.9% | -35.9% | 79.7% | 24.1% | 70.9% | -33.8% | -15.5% | -146% | -83.7% | -38.5% | -10.7% | 2.15% | -155% | -2.28% | 0.77% | 0.26% | 0.19% | 0.06% | 0.09% | 0.22% | 0.52% | -0.1% | -0.22% | 0.08% | 1.14% | 0.22% | 0.14% | 0.03% | 0.01% | -0.16% | 0.05% | -0.08% | -0.42%
3 | Cc1cc(Nc2cc(CN3CCOCC3)c3nc(C)c(Cc4ccc(Cl)cc4F)n3n2)n[nH]1 [Gandotinib] (10000 nM) | 80.9% | 83.8% | 59.9% | 69.7% | 24% | 51.3% | 103% | 100% | 92% | 101% | 102% | -107% | 58.1% | 67.7% | 82% | 88.8% | 11.5% | 76% | 44.5% | 14.2% | 27.9% | 96.7% | 26% | 58.8% | 72.3% | 51.7% | 75.9% | 64.2% | 39.4% | 7.38% | 41.2% | 27.9% | 49% | 120% | 28.5% | 59.8% | 50.8%
4 | CNC(=O)c1ccc(N2C(=S)N(c3ccc(C#N)c(C(F)(F)F)c3)C(=O)C23CCC3)cc1F [RD162] (10000 nM) | 103% | 84.9% | 101% | 97.4% | 109% | 91.2% | 98.4% | – | 97.1% | 90.6% | 106% | 110% | 111% | 99.8% | 95.4% | 96.3% | 89.8% | 50.8% | 89.8% | 96.3% | 101% | 105% | 95.3% | 91.5% | 95.5% | 95% | 106% | 93.8% | 92.3% | 101% | 102% | 85.1% | 92.6% | 91.8% | 93.3% | 89.5% | 95.3%
5 | S=P(N1CC1)(N1CC1)N1CC1 [Thio-TEPA] (50000 nM) | 101% | 93.5% | 99% | 89.4% | 48.1% | 93.8% | 97.7% | – | 97.7% | 73.4% | 97.6% | – | 97.2% | 113% | 103% | 103% | 119% | 77.7% | 91.7% | 77.2% | 97.2% | 98.1% | 63.8% | 93.7% | 100% | 95.6% | 111% | 93% | 99.7% | 103% | 104% | 94.8% | 104% | 111% | 96.9% | 101% | 101%
